Experiments:
CYP2C9 = biological target: T1, CYP2C9 (Homo sapiens, UniProt P11712); experiment: Cocktail CYP assay, diclofenac 4'-hydroxylation; type: in vitro ADME; conditions: human liver microsomes, 5 μM diclofenac; test concentrations up to 10 μM
T1 construct: 0.1 mg/mL protein human liver microsomes (BD Gentest); tissue BD Gentest; host or cells: human liver microsomes
Description: (§1) Determination of IC50 in a Cocktail Assay for CYPs 1A2, 2C9, 2C19, 2D6 and 3A4
(§2) This assay was performed in a standard 96-well plate design. IC50 values were calculated from the percent inhibition observed for each test compound at 6 concentrations (for example, 0.0032, 0.016, 0.08, 0.4, 2 and 10 μM). The incubation substrate mix contains 10 μM phenacetin (1A2), 5 μM diclofenac (2C9), 30 μM mephenyloin (2C19), 5 μM dextromethorphan (2D6) and 2 μM midazolam (3A4), 0.1 mg/mL protein human liver microsomes (BD Gentest), 1 mM NAPDH, 3.3 mM MgCl2 and 100 mM potassium phosphate buffer (pH 7.4). The production of the metabolite of each probe substrate was determined after incubation for 10 min at 37° C. Quantitation of the metabolite peak area ratio against an internal standard (tolbutamide) was determined by LC/MS/MS analysis following acetonitrile treatment of the incubations.
(§3) Samples were analyzed in the MRM mode with a SCIEX API-4000 mass spectrometer (Applied Biosystems, Foster City, Calif.), with a Shimadzu LC-20 AD pump (Shimadzu corporation, Kyoto, JP) and a CTC PAL autosampler (Agilent Technologies, Switzerland). A Phenomenex, Luna, 5 nm, 100 A, 2.00×30 mm HPLC column was used for the separation. The mobile phases were: (A) 0.1% formic acid in water and (B) 0.1% formic acid in acetonitrile. The binary gradient was as follows.
(§4) The peak area ratio of the analyte to the internal standard was used to quantify the metabolite. The values of peak area ratios in the presence of test compound were compared to those of maximum or minimum controls and were expressed as % inhibition by interpolating between the maximum and minimum peak area ratios. Incubations with no inhibitor were defined as the maxima.
(§5) The following equation was used to calculate the % inhibition:
(§6) [1−[(X−Low control)/(High control−Low control)]]*100
(§7) For the IC50 calculation, SigmaPlot was used to plot the mean % inhibition versus the test compound concentrations and for non-linear regression analysis of the data. Depending on the range of data points defining the inhibition curve, the data may have been fit to the 4-parameter logistic equation.

CYP1A2 = biological target: T2, CYP1A2 (Homo sapiens, UniProt P05177); experiment: Cocktail CYP assay, phenacetin O-deethylation; type: in vitro ADME; conditions: human liver microsomes, 10 μM phenacetin; test concentrations up to 10 μM
T2 construct: 0.1 mg/mL protein human liver microsomes (BD Gentest); tissue BD Gentest; host or cells: human liver microsomes
T2 sequence (P05177 1-516): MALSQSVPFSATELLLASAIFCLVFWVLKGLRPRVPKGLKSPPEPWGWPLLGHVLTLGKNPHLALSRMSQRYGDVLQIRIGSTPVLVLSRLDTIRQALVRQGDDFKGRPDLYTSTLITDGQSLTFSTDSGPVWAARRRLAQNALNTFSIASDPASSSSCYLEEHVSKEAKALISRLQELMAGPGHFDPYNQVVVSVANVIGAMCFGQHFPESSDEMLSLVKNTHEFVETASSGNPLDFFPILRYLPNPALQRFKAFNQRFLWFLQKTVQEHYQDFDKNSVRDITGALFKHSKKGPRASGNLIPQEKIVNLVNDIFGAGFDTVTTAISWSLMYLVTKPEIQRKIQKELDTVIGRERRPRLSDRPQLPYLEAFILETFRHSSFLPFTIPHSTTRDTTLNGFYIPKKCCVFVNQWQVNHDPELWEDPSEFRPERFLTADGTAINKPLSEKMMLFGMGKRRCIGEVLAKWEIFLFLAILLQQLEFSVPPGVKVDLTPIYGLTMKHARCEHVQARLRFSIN
Description: as §1, §2, §3, §4, §5, §6, §7

CYP2C19 = biological target: T3, CYP2C19 (Homo sapiens, UniProt P33261); experiment: Cocktail CYP assay, mephenytoin 4'-hydroxylation; type: in vitro ADME; conditions: human liver microsomes, 30 μM mephenytoin; test concentrations up to 10 μM
T3 construct: 0.1 mg/mL protein human liver microsomes (BD Gentest); tissue BD Gentest; host or cells: human liver microsomes
T3 sequence (P33261 whole entry): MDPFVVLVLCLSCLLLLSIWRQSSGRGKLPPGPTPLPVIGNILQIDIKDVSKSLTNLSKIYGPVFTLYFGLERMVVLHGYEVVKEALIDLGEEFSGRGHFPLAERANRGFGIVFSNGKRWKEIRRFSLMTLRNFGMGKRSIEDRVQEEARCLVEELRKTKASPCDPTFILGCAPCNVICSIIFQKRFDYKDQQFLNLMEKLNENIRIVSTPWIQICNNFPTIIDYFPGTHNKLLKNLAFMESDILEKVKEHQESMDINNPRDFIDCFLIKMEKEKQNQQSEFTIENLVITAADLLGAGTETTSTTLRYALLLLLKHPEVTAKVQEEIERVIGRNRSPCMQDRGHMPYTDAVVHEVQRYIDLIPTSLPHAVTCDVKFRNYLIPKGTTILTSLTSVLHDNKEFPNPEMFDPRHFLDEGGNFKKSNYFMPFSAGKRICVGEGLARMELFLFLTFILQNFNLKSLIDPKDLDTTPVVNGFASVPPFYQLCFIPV
Description: as §1, §2, §3, §4, §5, §6, §7

CYP2D6 = biological target: T4, CYP2D6 (Homo sapiens, UniProt P10635); experiment: Cocktail CYP assay, dextromethorphan O-demethylation; type: in vitro ADME; conditions: human liver microsomes, 5 μM dextromethorphan; test concentrations up to 10 μM
T4 construct: 0.1 mg/mL protein human liver microsomes (BD Gentest); tissue BD Gentest; host or cells: human liver microsomes
T4 sequence (P10635 whole entry): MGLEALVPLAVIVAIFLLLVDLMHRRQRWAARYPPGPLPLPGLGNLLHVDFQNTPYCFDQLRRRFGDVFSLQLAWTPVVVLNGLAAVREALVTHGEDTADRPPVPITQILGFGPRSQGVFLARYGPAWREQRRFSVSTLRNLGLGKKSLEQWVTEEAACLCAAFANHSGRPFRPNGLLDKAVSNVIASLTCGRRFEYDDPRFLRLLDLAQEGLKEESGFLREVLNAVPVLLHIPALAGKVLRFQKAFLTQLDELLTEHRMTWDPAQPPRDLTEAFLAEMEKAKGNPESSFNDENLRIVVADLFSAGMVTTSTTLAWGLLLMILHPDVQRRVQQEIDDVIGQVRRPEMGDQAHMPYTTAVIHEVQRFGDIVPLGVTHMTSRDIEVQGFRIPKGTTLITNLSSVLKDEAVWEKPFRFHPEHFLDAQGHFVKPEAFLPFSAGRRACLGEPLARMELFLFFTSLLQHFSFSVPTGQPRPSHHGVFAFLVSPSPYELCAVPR
Description: as §1, §2, §3, §4, §5, §6, §7

CYP3A4 = CYP3A4 (Homo sapiens, UniProt P08684); experiment: IC50 vs CYP3A by inhibition of lopinavir metabolism in human liver microsomes; type: biochemical; conditions: pH 7.4, human liver microsomes, 1.5 μM lopinavir, 8 min at 37° C., test concentrations 0.098-100 nM, read-out: 3A4(LPV)
CYP3A4, sequence (P08684 2-503): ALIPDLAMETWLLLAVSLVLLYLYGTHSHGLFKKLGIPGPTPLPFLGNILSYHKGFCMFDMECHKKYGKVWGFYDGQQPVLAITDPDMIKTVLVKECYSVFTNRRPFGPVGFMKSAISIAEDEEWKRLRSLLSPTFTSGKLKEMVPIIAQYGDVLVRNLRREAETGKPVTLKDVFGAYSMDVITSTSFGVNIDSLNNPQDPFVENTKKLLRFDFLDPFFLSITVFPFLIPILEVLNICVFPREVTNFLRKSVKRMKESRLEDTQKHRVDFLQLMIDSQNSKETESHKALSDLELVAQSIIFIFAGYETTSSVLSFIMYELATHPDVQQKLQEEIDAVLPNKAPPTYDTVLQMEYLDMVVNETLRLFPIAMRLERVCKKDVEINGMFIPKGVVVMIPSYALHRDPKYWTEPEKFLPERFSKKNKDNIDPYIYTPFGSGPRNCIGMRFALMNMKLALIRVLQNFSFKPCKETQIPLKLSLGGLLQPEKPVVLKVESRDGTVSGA
Description: Determination of IC50 vs CYP3A by Measurement of Inhibition of Lopinavir Metabolism
This assay was performed in a standard 96-well plate design. IC50 values were calculated from the percent inhibition observed for each test compound at 6 concentrations (for example, 0.098, 0.391, 1.56, 6.25, 25 and 100 nM). The incubation substrate mix contains 1.5 μM lopinavir, 0.01 mg/mL protein human liver microsomes (BD Gentest), 1 mM NAPDH, 3.3 mM MgCl2 and 100 mM potassium phosphate buffer (pH 7.4). The production of the sum of three hydroxylated metabolites (M2: 6-hydroxy lopinavir, M3: 4-hydroxy lopinavir, M4: 4-hydroxy lopinavir (epimer of M3), Kumar et al., 1999) was determined after incubation for 8 min at 37° C. Quantitation of the metabolite peak area ratio against an internal standard (tolbutamide) was determined by LC/MS/MS analysis following acetonitrile treatment of the incubations.
as §3, with “μm,” for “nm,”
as §4, with “maxima and with 5 μM ketoconazole were defined as the minima” for “maxima.”
as §5, §6, §7

human CYP11B1 = biological target: T5, human CYP11B1 (Homo sapiens, UniProt P15538); experiment: IC50 vs CYP11B1 by cortisol synthesis in V79 cells; type: cell-based; conditions: V79 cells expressing human CYP11B1, 1500 nM RSS, cortisol HTRF; test concentrations 0.5-10000 nM
T5 construct: expressed in transfected cells
T5 sequence (P15538 25-503): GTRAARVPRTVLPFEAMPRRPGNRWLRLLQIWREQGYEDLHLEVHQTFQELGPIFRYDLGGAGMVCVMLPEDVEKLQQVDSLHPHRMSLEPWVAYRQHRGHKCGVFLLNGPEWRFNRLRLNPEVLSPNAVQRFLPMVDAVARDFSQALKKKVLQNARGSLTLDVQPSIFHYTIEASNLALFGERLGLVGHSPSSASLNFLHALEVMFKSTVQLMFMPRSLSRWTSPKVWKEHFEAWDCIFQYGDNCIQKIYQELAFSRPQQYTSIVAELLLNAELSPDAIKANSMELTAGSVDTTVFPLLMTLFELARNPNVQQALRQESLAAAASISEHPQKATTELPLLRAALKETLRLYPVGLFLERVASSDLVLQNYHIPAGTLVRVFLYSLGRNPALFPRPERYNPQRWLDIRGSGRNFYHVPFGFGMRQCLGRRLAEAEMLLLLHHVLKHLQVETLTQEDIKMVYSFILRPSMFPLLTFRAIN
Description: (§8) Determination of IC50 vs CYP11B1/CYP11B2 by Measurement of Cortisol/Aldosterone Synthesis
(§9) This assay was performed in a standard 384-well plate design using cultured V79 cells stably expressing human CYP11B1 or human CYP11B2. Test compounds at 10 concentrations (for example, 10000, 3333.3, 1111.1, 370.4, 123.5, 41.2, 13.7, 4.6, 1.5 and 0.5 nM) were added in 384-well plate after the cell-seeding procedure. The incubation substrate contains 1500 nM RSS for CYP11B1 assay/750 nM DOC for CYP11B2 assay. The
(§10) Cortisol/Aldosterone production of cell culture supernatant was determined by Cortisol/Aldosterone HTRF kit after for about 15 hours incubation at RT (protect from light). IC50 values were calculated from the percent inhibition observed for each test compound at 10 concentrations.
(§11) The assay plate was read using Envision (Perkin Elmer, Waltham, Mass.) at 665 nm and 590 nm (using Filter Barcode of 217#, 205#; Mirror Barcode of 446#).
(§12) Data are analyzed using Assay Data Analyzer. All ratio data (665 nm/590 nm) are back calculated according to the standard curve, resulting in Cortisol/Aldosterone concentrations. IC50 values are reported as the Inflection Point (IP) of a four parameter fit of the titration data.
as §5
(§13) % Activity=100×{1−(Sample_back calculated Cortisol/Aldosterone concentration−LC_back calculated Cortisol/Aldosterone concentration)/(HC_back calculated Cortisol/Aldosterone concentration−LC_back calculated Cortisol/Aldosterone concentration)}

human CYP11B2 = biological target: T6, human CYP11B2 (Homo sapiens, UniProt P19099); experiment: IC50 vs CYP11B2 by aldosterone synthesis in V79 cells; type: cell-based; conditions: V79 cells expressing human CYP11B2, 750 nM DOC, aldosterone HTRF; test concentrations 0.5-10000 nM
T6 construct: expressed in transfected cells
T6 sequence (P19099 25-503): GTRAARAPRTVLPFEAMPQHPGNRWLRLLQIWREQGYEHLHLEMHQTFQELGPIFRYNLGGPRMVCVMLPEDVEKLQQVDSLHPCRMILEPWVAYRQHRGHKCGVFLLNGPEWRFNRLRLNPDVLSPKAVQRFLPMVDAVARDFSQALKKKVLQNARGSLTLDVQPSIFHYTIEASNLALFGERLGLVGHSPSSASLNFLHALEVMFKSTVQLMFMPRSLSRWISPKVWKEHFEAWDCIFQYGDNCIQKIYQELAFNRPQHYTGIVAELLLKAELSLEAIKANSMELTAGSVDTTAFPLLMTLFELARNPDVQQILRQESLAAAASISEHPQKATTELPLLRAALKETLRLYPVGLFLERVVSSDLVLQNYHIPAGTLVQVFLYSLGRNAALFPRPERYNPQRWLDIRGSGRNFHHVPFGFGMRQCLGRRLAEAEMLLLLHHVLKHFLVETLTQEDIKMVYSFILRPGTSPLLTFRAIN
Description: as §8, §9, §10, §11, §12, §5, §13

T1 sequence (P11712 whole entry): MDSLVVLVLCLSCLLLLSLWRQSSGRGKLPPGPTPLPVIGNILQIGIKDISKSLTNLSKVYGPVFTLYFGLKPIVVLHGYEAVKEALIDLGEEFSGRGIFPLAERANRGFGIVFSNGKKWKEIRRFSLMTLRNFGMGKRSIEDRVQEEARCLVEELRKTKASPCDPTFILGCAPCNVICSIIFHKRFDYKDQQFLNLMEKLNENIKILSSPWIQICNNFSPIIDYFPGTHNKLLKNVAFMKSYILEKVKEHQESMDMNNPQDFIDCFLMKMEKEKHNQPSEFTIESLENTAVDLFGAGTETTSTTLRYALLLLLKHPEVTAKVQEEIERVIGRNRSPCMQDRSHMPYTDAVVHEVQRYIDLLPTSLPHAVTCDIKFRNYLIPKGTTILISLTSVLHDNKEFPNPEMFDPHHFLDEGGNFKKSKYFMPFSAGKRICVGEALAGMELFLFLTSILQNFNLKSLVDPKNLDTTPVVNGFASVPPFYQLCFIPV

IC50 (CYP2C9)	IC50 (CYP1A2)	IC50 (CYP2C19)	IC50 (CYP2D6)	IC50 at 8 min (CYP3A4)	IC50 (human CYP11B1)	IC50 (human CYP11B2)	SMILES
2.26 µM	> 10 µM	4.95 µM	2.3 µM	0.0021 µM			C[C@H](c1ccc(F)cc1)n1cncc1C1CN(C)CC2CN(S(=O)(=O)c3cnc(Nc4ccccn4)s3)CCN21 (stereo partly drawn) [Compound 41]
1.75 µM	> 10 µM	> 10 µM	2.85 µM		1.46 µM	1.69 µM	C[C@H](c1ccc(F)cc1)n1cncc1CN1CCN(S(=O)(=O)c2cnc(N3CC[C@@H](N)[C@H](F)C3)s2)CC1 [Compound 12]
0.336 µM	> 10 µM	1.13 µM	5.68 µM	< 0.00098 µM			COC(c1cncn1[C@H](C)c1ccc(F)cc1)C1CCN(S(=O)(=O)c2cnc(Nc3ccc(C(F)(F)F)cn3)s2)CC1 (single isomer, unassigned) [Compound 45a]
3.39 µM	> 10 µM	> 10 µM	> 10 µM		4.09 µM		C[C@H](c1ccc(F)cc1)n1cncc1CN1CCN(S(=O)(=O)c2cnc(N3CCC(S(C)(=O)=O)C3)s2)CC1 (stereo partly drawn) [Compound 7]
3.57 µM	> 10 µM	8.39 µM	2.41 µM	0.0011 µM			C[C@H](c1ccc(F)cc1)n1cncc1CC1CCN(S(=O)(=O)c2cnc(N3CCN(C)CC3)s2)CC1 [Compound 44]
1.45 µM	> 10 µM	4.49 µM	7.85 µM				COC(c1cncn1[C@H](C)c1ccc(F)cc1)C1CCN(S(=O)(=O)c2cnc(Nc3ccc(C(F)(F)F)cn3)s2)CC1 (single isomer, unassigned) [Compound 45b]
> 10 µM	> 10 µM	> 10 µM	2.9 µM				C[C@H](c1ccc(F)cc1)n1cncc1C1CC12CCN(S(=O)(=O)c1cnc(N3CCN(C)CC3)s1)CC2 (single isomer, unassigned) [Compound 43a]
> 10 µM	> 10 µM	8.06 µM	2.85 µM	0.0094 µM			C[C@H](c1ccc(F)cc1)n1cncc1CC1(C#N)CCN(S(=O)(=O)c2cnc(N3CCN(C)CC3)s2)CC1 [Compound 48]
7.41 µM	> 10 µM	> 10 µM		0.0014 µM	1.56 µM		C[C@H](c1ccc(F)cc1)n1cncc1CN1CCN(S(=O)(=O)c2cnc(N3CC[C@@H]4OCCN[C@H]4C3)s2)CC1 [Compound 13]
9.76 µM	> 10 µM	> 10 µM			1.05 µM		C[C@H](c1ccc(F)cc1)n1cncc1CN1CCN(S(=O)(=O)c2cnc(N3CC[C@@H]4OCCN[C@H]4C3)s2)CC1 [Compound 14]
> 10 µM	> 10 µM	> 10 µM	5.84 µM	0.013 µM			C[C@H](c1ccc(F)cc1)n1cncc1CC1(CO)CCN(S(=O)(=O)c2cnc(N3CCN(C)CC3)s2)CC1 [Compound 47]
> 10 µM	> 10 µM	9.2 µM	3.6 µM				C[C@H](c1ccc(F)cc1)n1cncc1C1CC12CCN(S(=O)(=O)c1cnc(N3CCN(C)CC3)s1)CC2 (single isomer, unassigned) [Compound 43b]

From patent US20140005103A1, “SULFONAMIDE DERIVATIVES AND METHODS OF USE THEREOF FOR IMPROVING THE PHARMACOKINETICS OF A DRUG” (Merck, Sharp & Dohme Corp., priority 2012, published 2014)
